Assay results reported in PubChem BioAssay AID652213 (The Scripps Research Institute Molecular Screening Center, 2013).
Active and inactive are the calls of the source. No rule for the calls is given here.

molecular target: Serine/threonine-protein phosphatase PP1-alpha catalytic subunit (Homo sapiens) (UniProt P62136); experiment: PP1 inhibitors, OMFP dephosphorylation, late-stage follow-up, biochemical, fluorescence, OMFP substrate, set 3 (AID 652213); conditions: purified PP1, OMFP dephosphorylation, at 6.7 µM (top of the series)
Sequence (P62136 whole entry, looked up): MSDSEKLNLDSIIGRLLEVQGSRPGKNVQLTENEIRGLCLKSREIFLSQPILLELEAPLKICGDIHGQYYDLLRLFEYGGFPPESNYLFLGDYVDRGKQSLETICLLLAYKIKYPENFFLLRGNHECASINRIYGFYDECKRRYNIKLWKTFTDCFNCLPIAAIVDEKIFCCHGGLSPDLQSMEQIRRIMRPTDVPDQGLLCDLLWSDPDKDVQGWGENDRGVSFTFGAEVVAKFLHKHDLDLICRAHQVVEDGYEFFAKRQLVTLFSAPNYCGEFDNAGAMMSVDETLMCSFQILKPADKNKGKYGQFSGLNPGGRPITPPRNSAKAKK

| Structure (SMILES) | activity |
| --- | --- |
| Cc1ccc(-n2nc(C(=O)O)cc2-c2ccc(Cl)cc2)cc1 | 54.8% |
| c1ccc(Nc2nc(-c3ccccn3)cs2)cc1 | 62% |
| Cc1cc(C)c(S(=O)(=O)/N=C2\C=C(Sc3ncn[nH]3)C(=O)c3ccccc32)cc1C | 5.84% (inactive) |
| CCOC(=O)c1cnc(-n2nc(C)cc2C)nc1NC1CCCCC1 | 59.7% |
| COc1cnc(-c2ccccn2)nc1Oc1cccc(Cl)c1 | 46.4% |
| Nc1cc2nsnc2cc1Br | -10.1% (inactive) |
| Cc1ccc(C(=O)NNc2cc(N3CCCC3)nc(N3CCCC3)n2)cc1 | 4.62% (inactive) |
| CCOc1ccc(NC(=S)Nc2ccc3nsnc3c2)cc1 | 2.39% (inactive) |
| COc1cnc(-c2ccccn2)nc1Sc1ccc(Cl)cc1 | 54.6% |
| COc1ccc2c(Cl)c(C(=O)N/N=C/c3ccc4c(c3)OCO4)sc2c1 | 20.2% (inactive) |
| CCCN(CC1CC1)c1nc(N)c2c(N)nc(OC)cc2c1C#N | 0.2% (inactive) |
| CCOC(=O)c1nn(-c2ccc(C)cc2)c(=O)c2c(N)scc12 | 4.75% (inactive) |
| Cc1nnc(NC(=O)C2C3C=CC(O3)C2C(=O)O)s1 (centres undefined) | 2.61% (inactive) |
| O=C(NC1(O)C(=O)c2ccccc2C1=O)c1ccccc1 | -6.67% (inactive) |
| COc1ccc(NC(=O)C2C3CCC(O3)C2C(=O)O)c(OC)c1 (centres undefined) | 35.3% |
| CCOC(=O)c1cnc(-n2cc(C)cn2)nc1NCc1ccc2c(c1)OCO2 | 16.5% (inactive) |
| COc1ccccc1Sc1nc(-c2ccccn2)ncc1OC | 63.1% |
| CCOC(=O)c1sc(N2C(=O)C(O)=C(C(=O)c3ccco3)C2c2cccc([N+](=O)[O-])c2)nc1C (centres undefined) | 26.6% |
| O=C(NC1(O)C(=O)c2ccccc2C1=O)c1ccc(C(F)(F)F)cc1 | 8.58% (inactive) |
| CCOC(=O)c1cnc(-n2nc(C)cc2C)nc1NCc1ccccc1 | 62.5% |
| O=S(=O)(Cc1cc(NCc2ccccc2)nc(-c2ccccn2)n1)c1ccccc1 | 50% |
| COc1cc(Br)c(C(=O)c2nccc3cc(OC)c(OC)cc23)cc1OC | -11.4% (inactive) |

| Structure (SMILES) | activity |
| --- | --- |
| CN1CCN(C(c2ccccn2)c2cc(Cl)c3cccnc3c2O)CC1 (centres undefined) | 69.7% |
| COc1ccc(CN2C(=O)Cc3c2nc(N)c2c(N)nc(N4CCCCC4)c(C#N)c32)cc1 | -0.66% (inactive) |
| Oc1ccc(/C=N/Nc2cc(N3CCOCC3)nc(N3CCOCC3)n2)c(O)c1 | 7.02% (inactive) |
| COc1ccc(OCCCC(=O)Nc2nc(-c3ccccn3)cs2)cc1 | 26.8% |
| COc1cnc(-c2ccccn2)nc1Sc1ccc(C)cc1 | 62.9% |
| Clc1ccc(-n2nnnc2-c2cnc(-c3ccccn3)nc2-c2cccs2)cc1 | 66.6% |
| COc1cnc(-c2ccccn2)nc1Sc1ccc(F)cc1 | 53.8% |
| COc1ccc(NC(=S)Nc2ccc3nsnc3c2)cc1 | -1.36% (inactive) |
| c1ccc(-c2nccc(-c3ccc(-n4cnc5ccccc54)cc3)n2)nc1 | 62.4% |
| CCOC(=O)c1sc2nc3c(SCC(=O)O)cc(C(=O)c4cc(F)ccc4O)cn3c(=O)c2c1C | 65.9% |
| N#Cc1c(-c2ccc(Cl)cc2)cc(-c2cccs2)nc1SCC(=O)O | 45.4% |
| CCOC(=O)C1=C(C)OC2(O)c3ccccc3C(=O)C12O (centres undefined) | 27.1% (inactive) |
| Cc1ccc(C(=O)NC2(O)C(=O)c3ccccc3C2=O)cc1C | 1.19% (inactive) |
| CCCCN(CC)c1nc(N)c2c(N)nc(OCC)cc2c1C#N | 4.31% (inactive) |
| CCCCn1c(NC(=O)c2ccco2)c(C(=O)OCC)c2nc3ccccc3nc21 | -8.57% (inactive) |
| O=C(O)C1C2CCC(O2)C1C(=O)NC1CCCCC1 (centres undefined) | 26.2% (inactive) |
| Oc1cccc(/C=N/Nc2cc(N3CCCC3)nc(N3CCCC3)n2)c1 | 18.5% (inactive) |
| O=C1Nc2ccccc2N2CCCC12 (centres undefined) | -7.49% (inactive) |
| CCOC(=O)c1cnc(-n2nc(C)cc2C)nc1NCCc1ccccc1 | 68.3% |
| COc1cnc(-c2ccccn2)nc1Oc1cccc(C(F)(F)F)c1 | -4.64% (inactive) |
| CCOC(=O)c1cnc(-n2nc(C)cc2C)nc1NC(C)c1ccccc1 (centres undefined) | 69.4% |
| Cc1[nH]n(-c2ccccc2)c(=O)c1C(c1ccc([N+](=O)[O-])cc1)c1c(C)[nH]n(-c2ccccc2)c1=O | -6.69% (inactive) |

| Structure (SMILES) | activity |
| --- | --- |
| CC(C)(CS(=O)(=O)[O-])NC(=O)CC[N+](C)(C)CCO | 49.7% |
| O=C(O)c1cc(-c2ccc(Cl)c(Cl)c2)n(-c2ccc(F)cc2)n1 | 57.7% |
| COc1cnc(-c2ccccn2)nc1Sc1ccccc1 | 64.9% |
| Nc1nc(-c2ccccn2)nc(N)c1Cc1ccc(Cl)cc1Cl | 67.1% |
| O=C(O)c1cc(-c2ccc(Cl)cc2)n(-c2cccc(Cl)c2)n1 | 55.6% |
| O=C(NC1(O)C(=O)c2ccccc2C1=O)c1c(Cl)cccc1Cl | -3.06% (inactive) |
| COc1ccc(Cn2c(N)c(C(=O)NCc3ccco3)c3nc4ccccc4nc32)cc1OC | 3.93% (inactive) |
| COc1ccc(C(=O)c2nccc3cc(OC)c(OC)cc23)cc1OC | 5.53% (inactive) |
| COc1ccc(Cl)cc1C(=O)Nc1cccc(-c2ccc3nncn3n2)c1 | 56.6% |
| COc1cnc(-c2ccccn2)nc1Sc1cccc(Cl)c1 | 64.1% |
| COc1cnc(-c2ccccn2)nc1Sc1ccccc1Cl | 68.7% |
| O=c1[nH]c(Nc2ccccc2)cc2ccccc12 | 4.07% (inactive) |
| CCn1c2ccccc2c2cc(NC(=O)COC(=O)c3ccc(NC(=O)CC#N)cc3)ccc21 | 49% |
| COc1ccc(Sc2nc(-c3ccccn3)ncc2OC)cc1 | 72.4% |
| O=C(Nc1nc(-c2ccccn2)cs1)C1CC(=O)N(c2ccc3c(c2)OCCO3)C1 (centres undefined) | 42.3% |
| CC(=O)C(C(C)=O)C1(O)C(=O)c2ccccc2C1=O | 1.17% (inactive) |
| N#Cc1c(N2CCCC(O)C2)nc(N)c2c(N)nc3c(c12)CC(=O)N3C12CC3CC(CC(C3)C1)C2 (centres undefined) | 5.14% (inactive) |
| O=C1CCCC2=C1C1(O)C(=O)c3ccccc3C1(O)O2 (centres undefined) | 3.07% (inactive) |
| O=C(O)c1cc(-c2ccc(Cl)c(Cl)c2)n(-c2ccccc2)n1 | 59.9% |
| Oc1ccccc1/C=N/Nc1cc(N2CCCC2)nc(N2CCCC2)n1 | 4.03% (inactive) |
